# Starred links: 1 amine or outer side, 2 acyl side, 3 side chain; linkers in the order of their positions; H or OH if unused. Non-standard residues stand in square brackets, D forms with d. Residues, ends and D or L forms follow the SMILES beside them. *: point of attachment. Shikimoyl = O=C(C1=C[C@@H](O)[C@@H](O)[C@H](O)C1)*; dPhe(4-Cl) = N[C@H](Cc1ccc(Cl)cc1)C(=O)O; d2Nal = N[C@H](Cc1ccc2ccccc2c1)C(=O)O; NMeY = CN[C@@H](Cc1ccc(O)cc1)C(=O)O; dCit = NC(=O)NCCC[C@@H](N)C(=O)O; d3Pal = N[C@H](Cc1cccnc1)C(=O)O; Suc = O=C(CCC(=O)[*:2])[*:1]; Nicotinoyl = O=C(c1cccnc1)*; Sar = CNCC(=O)O
# Molecular target: T1, LHRH (Rattus norvegicus, UniProt P30969)
# T1 construct: endogenous in cells; host or cells: rat pituitary cells (own knowledge of the cited Haviv 1989 method)
# T1 sequence (P30969 1-327): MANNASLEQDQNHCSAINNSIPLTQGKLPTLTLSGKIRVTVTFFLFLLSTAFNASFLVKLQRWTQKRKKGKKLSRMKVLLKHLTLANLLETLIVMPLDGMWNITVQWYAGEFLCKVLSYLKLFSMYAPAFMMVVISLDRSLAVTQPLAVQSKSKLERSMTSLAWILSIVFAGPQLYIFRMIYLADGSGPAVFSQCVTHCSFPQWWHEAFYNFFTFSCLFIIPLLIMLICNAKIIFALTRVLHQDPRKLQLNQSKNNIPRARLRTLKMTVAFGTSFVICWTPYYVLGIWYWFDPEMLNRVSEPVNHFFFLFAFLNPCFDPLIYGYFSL
# Experiment: in vitro test for LHRH antagonist potency (pA2)
# Assay type: cell-based
# Details: negative logarithm of the antagonist concentration required to shift the response curve produced by the agonist leuprolide to two-fold higher concentration
# Protocol: Representative compounds of the present invention were evaluated in an in vitro test for LHRH antagonist potency (pA2). The test employed the method detailed in F. Haviv, et al. J. Med. Chem., 32:2340-2344 (1989). The values of pA2 are the negative logarithms of the concentration of the particular antagonist test compound required to shift the response curve produced by the agonist leuprolide to two-fold higher concentration. (Leuprolide is the LHRH agonist having the structure 5-oxo-Pro^1 -His^2 -Trp^3 -Ser^4 -Tyr^5 -D-Leu^6 -Leu^7 -Arg^8 -Pro^9 -NHEt and is disclosed and claimed in U.S. Pat. No. 4,005,063.) Typically pA2 values of 9.5 or greater are indicative of good LHRH antagonist potency, with values of 10.0 or greater being preferred.
row,SMILES,Kb [nM]
1,"CC(C)C[C@H](NC(=O)[C@@H](CCCNC(N)=O)NC(=O)[C@H](Cc1ccc(O)cc1)N(C)C(=O)[C@H](CO)NC(=O)[C@@H](Cc1cccnc1)NC(=O)[C@@H](Cc1ccc(Cl)cc1)NC(=O)[C@@H](Cc1ccc2ccccc2c1)NC(=O)CNC(=O)C1=C[C@@H](O)[C@@H](O)[C@H](O)C1)C(=O)N[C@@H](CCCNC(=N)N)C(=O)N1CCC[C@H]1C(=O)N[C@H](C)C(N)=O [Example 13b, N-Shikimyl-Gly-D2Nal-D4ClPhe-D3Pal-Ser-NMeTyr-DCit-Leu-Arg-Pro-DAlaNH2] (Shikimoyl-G[d2Nal][dPhe(4-Cl)][d3Pal]S[NMeY][dCit]LRP[dA]-NH2)",0.00955
2,"CC(C)C[C@H](NC(=O)[C@@H](CCCNC(N)=O)NC(=O)[C@H](Cc1ccc(O)cc1)N(C)C(=O)[C@H](CO)NC(=O)[C@@H](Cc1cccnc1)NC(=O)[C@@H](Cc1ccc(Cl)cc1)NC(=O)[C@@H](Cc1ccc2ccccc2c1)NC(=O)CNC(=O)c1cccnc1)C(=O)N[C@@H](CCCNC(=N)N)C(=O)N1CCC[C@H]1C(=O)N[C@H](C)C(N)=O [Example 13c, N-Nicotinyl-Gly-D2Nal-D4ClPhe-D3Pal-Ser-NMeTyr-DCit-Leu-Arg-Pro-DAlaNH2] (Nicotinoyl-G[d2Nal][dPhe(4-Cl)][d3Pal]S[NMeY][dCit]LRP[dA]-NH2)",0.00355
3,"CC(C)C[C@H](NC(=O)[C@@H](CCCNC(N)=O)NC(=O)[C@H](Cc1ccc(O)cc1)N(C)C(=O)[C@H](CO)NC(=O)[C@@H](Cc1cccnc1)NC(=O)[C@@H](Cc1ccc(Cl)cc1)NC(=O)[C@@H](Cc1ccc2ccccc2c1)NC(=O)CNC(=O)CCC(=O)O)C(=O)N[C@@H](CCCNC(=N)N)C(=O)N1CCC[C@H]1C(=O)N[C@H](C)C(N)=O [Example 13d, N-Succinyl-Gly-D2Nal-D4ClPhe-D3Pal-Ser-NMeTyr-DCit-Leu-Arg-Pro-DAlaNH2] (Suc-G[d2Nal][dPhe(4-Cl)][d3Pal]S[NMeY][dCit]LRP[dA]-NH2)",0.0407
4,"CC(C)C[C@H](NC(=O)[C@@H](CCCNC(N)=O)NC(=O)[C@H](Cc1ccc(O)cc1)N(C)C(=O)[C@H](CO)NC(=O)[C@@H](Cc1cccnc1)NC(=O)[C@@H](Cc1ccc(Cl)cc1)NC(=O)[C@@H](Cc1ccc2ccccc2c1)NC(=O)[C@@H](C)NC(=O)C1=C[C@@H](O)[C@@H](O)[C@H](O)C1)C(=O)N[C@@H](CCCNC(=N)N)C(=O)N1CCC[C@H]1C(=O)N[C@H](C)C(N)=O [Example 13e, N-Shikimyl-DAla-D2Nal-D4ClPhe-D3Pal-Ser-NMeTyr-DCit-Leu-Arg-Pro-DAlaNH2] (Shikimoyl-[dA][d2Nal][dPhe(4-Cl)][d3Pal]S[NMeY][dCit]LRP[dA]-NH2)",0.0316
5,"CC(C)C[C@H](NC(=O)[C@@H](CCCNC(N)=O)NC(=O)[C@H](Cc1ccc(O)cc1)N(C)C(=O)[C@H](CO)NC(=O)[C@@H](Cc1cccnc1)NC(=O)[C@@H](Cc1ccc(Cl)cc1)NC(=O)[C@@H](Cc1ccc2ccccc2c1)NC(=O)[C@@H](CO)NC(=O)C1=C[C@@H](O)[C@@H](O)[C@H](O)C1)C(=O)N[C@@H](CCCNC(=N)N)C(=O)N1CCC[C@H]1C(=O)N[C@H](C)C(N)=O [Example 13f, N-Shikimyl-DSer-D2Nal-D4ClPhe-D3Pal-Ser-NMeTyr-DCit-Leu-Arg-Pro-DAlaNH2] (Shikimoyl-[dS][d2Nal][dPhe(4-Cl)][d3Pal]S[NMeY][dCit]LRP[dA]-NH2)",0.0178
6,"CC(C)C[C@H](NC(=O)[C@@H](CCCCNC(=O)C1=C[C@@H](O)[C@@H](O)[C@H](O)C1)NC(=O)[C@H](Cc1ccc(O)cc1)N(C)C(=O)[C@H](CO)NC(=O)[C@@H](Cc1cccnc1)NC(=O)[C@@H](Cc1ccc(Cl)cc1)NC(=O)[C@@H](Cc1ccc2ccccc2c1)NC(=O)CN(C)C(=O)c1cccnc1)C(=O)N[C@@H](CCCNC(=N)N)C(=O)N1CCC[C@H]1C(=O)N[C@H](C)C(N)=O [Example 14a, N-Nicotinyl-Sar-D2Nal-D4ClPhe-D3Pal-Ser-NMeTyr-DLys(Shik)-Leu-Arg-Pro-DAlaNH2] (Nicotinoyl-[Sar][d2Nal][dPhe(4-Cl)][d3Pal]S[NMeY][dK](Shikimoyl)LRP[dA]-NH2)",0.0132
7,"CC(C)C[C@H](NC(=O)[C@@H](CCCCNC(=O)C1=C[C@@H](O)[C@@H](O)[C@H](O)C1)NC(=O)[C@H](Cc1ccc(O)cc1)N(C)C(=O)[C@H](CO)NC(=O)[C@@H](Cc1cccnc1)NC(=O)[C@@H](Cc1ccc(Cl)cc1)NC(=O)[C@@H](Cc1ccc2ccccc2c1)NC(=O)CN(C)C(=O)C1=C[C@@H](O)[C@@H](O)[C@H](O)C1)C(=O)N[C@@H](CCCNC(=N)N)C(=O)N1CCC[C@H]1C(=O)N[C@H](C)C(N)=O [Example 14b, N-Shikimyl-Sar-D2Nal-D4ClPhe-D3Pal-Ser-NMeTyr-DLys(Shik)-Leu-Arg-Pro-DAlaNH2] (Shikimoyl-[Sar][d2Nal][dPhe(4-Cl)][d3Pal]S[NMeY][dK](Shikimoyl)LRP[dA]-NH2)",0.105
8,"CC(C)C[C@H](NC(=O)[C@@H](CCCCNC(=O)C1=C[C@@H](O)[C@@H](O)[C@H](O)C1)NC(=O)[C@H](Cc1ccc(O)cc1)N(C)C(=O)[C@H](CO)NC(=O)[C@@H](Cc1cccnc1)NC(=O)[C@@H](Cc1ccc(Cl)cc1)NC(=O)[C@@H](Cc1ccc2ccccc2c1)NC(=O)[C@@H](C)NC(=O)c1cccnc1)C(=O)N[C@@H](CCCNC(=N)N)C(=O)N1CCC[C@H]1C(=O)N[C@H](C)C(N)=O [Example 14c, N-Nicotinyl-DAla-D2Nal-D4ClPhe-D3Pal-Ser-NMeTyr-DLys(Shik)-Leu-Arg-Pro-DAlaNH2] (Nicotinoyl-[dA][d2Nal][dPhe(4-Cl)][d3Pal]S[NMeY][dK](Shikimoyl)LRP[dA]-NH2)",0.00537
9,"CC(C)C[C@H](NC(=O)[C@@H](CCCCNC(=O)C1=C[C@@H](O)[C@@H](O)[C@H](O)C1)NC(=O)[C@H](Cc1ccc(O)cc1)N(C)C(=O)[C@H](CO)NC(=O)[C@@H](Cc1cccnc1)NC(=O)[C@@H](Cc1ccc(Cl)cc1)NC(=O)[C@@H](Cc1ccc2ccccc2c1)NC(=O)[C@@H](C)NC(=O)C1=C[C@@H](O)[C@@H](O)[C@H](O)C1)C(=O)N[C@@H](CCCNC(=N)N)C(=O)N1CCC[C@H]1C(=O)N[C@H](C)C(N)=O [Example 14d, N-Shikimyl-DAla-D2Nal-D4ClPhe-D3Pal-Ser-NMeTyr-DLys(Shik)-Leu-Arg-Pro-DAlaNH2] (Shikimoyl-[dA][d2Nal][dPhe(4-Cl)][d3Pal]S[NMeY][dK](Shikimoyl)LRP[dA]-NH2)",0.00891
10,"CC(C)C[C@H](NC(=O)[C@@H](CCCCNC(=O)C1=C[C@@H](O)[C@@H](O)[C@H](O)C1)NC(=O)[C@H](Cc1ccc(O)cc1)N(C)C(=O)[C@H](CO)NC(=O)[C@@H](Cc1cccnc1)NC(=O)[C@@H](Cc1ccc(Cl)cc1)NC(=O)[C@@H](Cc1ccc2ccccc2c1)NC(=O)[C@@H](CO)NC(=O)c1cccnc1)C(=O)N[C@@H](CCCNC(=N)N)C(=O)N1CCC[C@H]1C(=O)N[C@H](C)C(N)=O [Example 14e, N-Nicotinyl-DSer-D2Nal-D4ClPhe-D3Pal-Ser-NMeTyr-DLys(Shik)-Leu-Arg-Pro-DAlaNH2] (Nicotinoyl-[dS][d2Nal][dPhe(4-Cl)][d3Pal]S[NMeY][dK](Shikimoyl)LRP[dA]-NH2)",0.0195

# From US5502035A, “N-terminus modified analogs of LHRH” (Tap Holdings Inc., priority 1994, dated 1996)
